From publication PMC3454513 (Nature structural & molecular biology, 2012)

B1: PHF20 Tudor2 (amino acids 84–147), disulfide cross-linked homodimer (domain or fragment, human, UniProt Q9BVI0 84-147, looked up)
chain: SSEFQINEQVLACWSDCRFYPAKVTAVNKDGTYTVKFYDGVVQTVKHIHVKAFSKDQNIVGNAR
modifications: disulfide bonds between Cys96 and Cys100 of subunit A and Cys100 and Cys96 of subunit B

Columns and labels:
p53 = test: Immunoblot of p53 phosphorylated at Ser15, HCT 116 cells; assay type: cell-based, human; details: 10 μM doxorubicin or 100 μM etoposide for 4 h
[1] = test system: PHF20 Tudor2 and Tudor1-2; assay type: binding, human; details: peptide array (Supplementary Fig. 1)
mass spectrometry = biological target: the molecule itself; test: mass spectrometry

Molecule | interaction with PHF20 among the four known methylated forms of p53 [1] | also measured
COc1cccc2c1C(=O)c1c(O)c3c(c(O)c1C2=O)C[C@@](O)(C(=O)CO)C[C@@H]3O[C@H]1C[C@H](N)[C@H](O)[C@H](C)O1 [doxorubicin] | – | phosphorylation of p53 at Ser15 (p53): induced phosphorylation of p53 at Ser15
p53K370me2: Cy3-labeled 18-amino acid p53 peptide dimethylated at Lys370 | strongest interaction | –
p53K382me2: Cy3-labeled 18-amino acid p53 peptide dimethylated at Lys382 | strongest interaction | –
B1 | – | stoichiometry N (mass spectrometry): 2
